Literature values in patent US20110160244A1, “PHENYL[…] MU-OPIOID RECEPTOR” (AUSPEX PHARMACEUTICALS, INC., priority 2008, published 2011).

Columns and labels:
[1] = after oral administration

Compound: CCOC(=O)C1(c2ccccc2)CCN(C)CC1 [Meperidine, Ethyl 1-methyl-4-phenylpiperidine-4-carboxylate]
- time to peak analgesic effect (following oral administration): ≤ 2 h
- time until analgesic effects are detectable (following oral administration): ≤ 15 min
- time for which the drug is effective (statement on dosing interval): 2 h
- fraction escaping first-pass metabolism [1]: about 50%
